Reference: US20060166867A1, “Novel conjugates of polysaccharides and uses thereof” (priority 2003, published 2006)

Experiments:
Assay in all cases: Gentamycin Disk Diffusion test
Settings in all cases: disk method
[1] = system: K. pneumoniae-ESBL positive; assay type: cell-based, Klebsiella pneumoniae
S. epidermidis MRSE = assay type: cell-based, Staphylococcus epidermidis
[2] = system: Enterococcus faecalis-vancomycin^r; assay type: cell-based
[3] = system: K. pneumoniae-ESBL negative; assay type: cell-based, Klebsiella pneumoniae
S. epidermidis MSSE = assay type: cell-based, Staphylococcus epidermidis
Enterobacter aerogenes = assay type: cell-based
[4] = system: A. baumannii-amikacin^r, meropenem^r; assay type: cell-based, Acinetobacter baumannii
E. Coli-ESBL positive = assay type: cell-based, Escherichia coli
E. Coli B3095141^r = assay type: cell-based, Escherichia coli
E. Coli-ESBL negative = assay type: cell-based, Escherichia coli
A. baumannii R16998^r = assay type: cell-based, Acinetobacter baumannii
S. aureus MSSA = assay type: cell-based, Staphylococcus aureus
[5] = system: Enterobacter cloacae W25161^r; assay type: cell-based
[6] = system: A. baumannii-amikacin^s, meropenem^s; assay type: cell-based, Acinetobacter baumannii
S. aureus MRSA = assay type: cell-based, Staphylococcus aureus

With Gentamycin the “Gentamycin (disk): resistance or sensitivity of the tested strain” value (shortened to “Gentamycin (disk)”) [1] was “r (resistance of the tested strain (disk method diameter ≦12 millimeters, equivalent to a MIC ≧8 mg/liter))”, the “Gentamycin (disk)” value (S. epidermidis MRSE) was “s (sensitivity of the tested strain (disk method diameter ≧15 millimeters, equivalent to a MIC ≦4 mg/liter))” and the “Gentamycin (disk)” value [2] was “r (resistance of the tested strain (disk method diameter ≦12 millimeters, equivalent to a MIC ≧8 mg/liter))”. The “Gentamycin (disk)” value [3] was “s (sensitivity of the tested strain (disk method diameter ≧15 millimeters, equivalent to a MIC ≦4 mg/liter))”, the “Gentamycin (disk)” value (S. epidermidis MSSE) was “s (sensitivity of the tested strain (disk method diameter ≧15 millimeters, equivalent to a MIC ≦4 mg/liter))” and the “Gentamycin (disk)” value (Enterobacter aerogenes) was “r (resistance of the tested strain (disk method diameter ≦12 millimeters, equivalent to a MIC ≧8 mg/liter))”. For the same substance, the “Gentamycin (disk)” value [4] was “r (resistance of the tested strain (disk method diameter ≦12 millimeters, equivalent to a MIC ≧8 mg/liter))”, the “Gentamycin (disk)” value (E. Coli-ESBL positive) was “r (resistance of the tested strain (disk method diameter ≦12 millimeters, equivalent to a MIC ≧8 mg/liter))” and the “Gentamycin (disk)” value (E. Coli B3095141^r) was “r (resistance of the tested strain (disk method diameter ≦12 millimeters, equivalent to a MIC ≧8 mg/liter))”. The “Gentamycin (disk)” value (E. Coli-ESBL negative) was “s (sensitivity of the tested strain (disk method diameter ≧15 millimeters, equivalent to a MIC ≦4 mg/liter))”, the “Gentamycin (disk)” value (A. baumannii R16998^r) was “r (resistance of the tested strain (disk method diameter ≦12 millimeters, equivalent to a MIC ≧8 mg/liter))” and the “Gentamycin (disk)” value (S. aureus MSSA) was “r (resistance of the tested strain (disk method diameter ≦12 millimeters, equivalent to a MIC ≧8 mg/liter))”. For the same substance, the “Gentamycin (disk)” value [5] was “r (resistance of the tested strain (disk method diameter ≦12 millimeters, equivalent to a MIC ≧8 mg/liter))”, the “Gentamycin (disk)” value [6] was “r (resistance of the tested strain (disk method diameter ≦12 millimeters, equivalent to a MIC ≧8 mg/liter))” and the “Gentamycin (disk)” value (S. aureus MRSA) was “s (sensitivity of the tested strain (disk method diameter ≧15 millimeters, equivalent to a MIC ≦4 mg/liter))”.
